Results on 1 compound are retold here after patent US8344028B2, “Gamma-amino-butyric acid derivatives as GABAB receptor ligands” (XenoPort, Inc., priority 2009, dated 2013).

In data set [1] the target is T1, recombinant human GABABR1a2 (Homo sapiens, UniProt Q9UBS5).
T1 construct: expressed in transfected cells; host or cells: HEK cells
In words: cAMP assay for determining GABAB receptor agonist activity. To be noted: cells expressing recombinant human GABABR1a2; read-out: cAMP EC50. Format: cell-based. On the procedure: The following procedure was used to determine the level of intracellular cAMP. Recombinant HEK cells expressing the GABAB R1a2 receptor were used in the experiments. cAMP levels were measured using a cAMP XS^+ HitHunter™ Chemiluminescence Assay Kit (90-0075-02, GE Healthcare Biosciences Corp.). Cells were seeded overnight at 5,000 cells per well, in black, clear bottom 96-well plates. The following morning, cells were washed twice with 100 μL PBS per well. Forskolin was weighed out and dissolved in DMSO to a final concentration 100 mM. One-hundred (100) μM forskolin solutions were prepared in PBS with and without test compound at 1-times final concentration. Thirty (30) μL of the test solutions were added to the wells and incubated for 1 h at room temperature. The cAMP concentration was determined according to the protocol described in the cAMP assay kit, maintaining the plate at room temperature and in the dark. Two hours after the final kit reagent was added, the plate bottom was covered with black tape, and the plate read using a 1450 MicroBeta Trilux microplate scintillation and luminescence counter (PerkinElmer, Waltham, Mass.). Each well was read for 6 seconds. The untransformed data was then analyzed.

The nature of data set [2]: Bioavailability following oral administration to rats. To be noted: rat, in vivo. The procedure:
Rats were obtained commercially and were pre-cannulated in the jugular vein. Animals were conscious at the time of the experiment. All animals were fasted overnight and until 4 hours post-dosing of a compound.
Rat blood samples (0.3 mL/sample) were collected from all animals prior to dosing and at different time-points up to 24 h post-dose into tubes containing EDTA. Two aliquots (100 μL each) were quenched with 300 μL methanol and stored at −20° C. prior to analysis.
To prepare analysis standards, 90 μL of rat blood was quenched with 300 μL methanol followed by 10 μL of spiking standard and/or 20 μL of internal standard. The sample tubes were vortexed for at least 2 min and then centrifuged at 3400 rpm for 20 min. The supernatant was then transferred to an injection vial or plate for analysis by LC-MS-MS.
To prepare samples for analysis, 20 μL of internal standard was added to each quenched sample tube. The sample tubes were vortexed for at least 2 min and then centrifuged at 3400 rpm for 20 min. The supernatant was then transferred to an injection vial or plate for analysis by LC-MS-MS.
LC/MS/MS analysis was performed using an API 2000 or API 4000 mass spectrometer equipped with a Shimadzu and or Agilent HPLC system are used for determination concentration of compounds in rat blood. A Varian Polaris C18, 3μ 50×4.6 mm column was used. 0.1% Formic acid in water and acetonitrile were applied as the mobile phase. Runs were 4.0 min. […] L-4-Chlorophenylalanine was used as an internal standard at m/z 200.00/154.00.
Non-compartmental analysis was performed using WinNonlin software (v.3.1 Professional Version, Pharsight Corporation, Mountain View, Calif.) on individual animal profiles. […]
The oral bioavailability (F %) of a compound was determined by comparing the area under the compound concentration vs time curve (AUC) following oral administration of a prodrug of a GABAB ligand with the AUC of the compound concentration vs time curve following intravenous administration of the GABAB ligand on a dose normalized basis.

Data set [3] deals with T1, recombinant human GABABR1a2. In words: Ca2+ assay for determining GABAB receptor agonist activity. The note with it: cells expressing recombinant human GABABR1a2. Format: cell-based. The procedure: The following procedure was used to determine the GABAB receptor agonist activity of a compound as reflected by activation of Ca^2+ signaling. HEK TREx cells expressing GABABR1a2 under tetracycline induction control, and Gqi chimeric protein (expressed constitutively), allowing GABABR coupling through the Ca^2+ signaling pathway were used in the experiments.
Cells were seeded in media containing tetracycline overnight at 100,000 cells/well, in black, clear-bottom, 96-well plates. The following morning, cells were washed twice with 100 μL HBSS buffer per well. Fluorescent Ca^2+ indicator dye was prepared using the materials and procedure described in the F362056 Fluo-4 NW Calcium Assay Kit (Invitrogen, Carlsbad, Calif.). Ten (10) mL of kit buffer and 100 μl of kit Probenecid were added to individual kit dye vials, and rolled back and forth several times to dissolve the dye. Cells were then loaded into the dye solution at 50 μL per well. The cells and dye were incubated for 30 min at 37° C., and then incubated for an additional 30 min at room temperature in the dark. Test compounds are dissolved in HBSS buffer at twice final concentration. Duplicate wells were used for each unique condition. Solution containing the test compound was added to the wells using a FLEXStation II (Molecular Devices, Sunnyvale, Calif.). Using the instrument in kinetic mode in which each well was read every 2 sec over a total collection time of 50 sec fluorescence was measured using an excitation wavelength 494 nm and a detection wavelength of 516 nm. A normalized fluorescence value for each well was calculated using the following procedure. The difference in fluorescence at 35 sec (usually representing maximal response) and at 15 sec (a time point prior to addition of test compounds) was calculated, divided by the fluorescence at 15 sec, and the result multiplied by 100. The final value represented the percent increase in fluorescence relative to the fluorescence at 15 sec. Data was analyzed using standard procedures.

Another data set has as its target T2, GABAB receptor (Rattus norvegicus, UniProt Q9Z0U4).
T2 construct: from tissue; host or cells: rat cerebral cortex membranes
Put plainly: [3H]CGP54626 rat brain GABAB receptor binding assay. The note with it: [3H]CGP54626 rat brain binding assay. The procedure:
An assay using rat cerebral cortex membranes was used to determine the affinity of GABAB receptor ligands for the GABAB receptor.
An assay buffer of 50 mM Tris pH 7.4 was prepared with 100 μM of isoguvacine, to block GABAA interactions. The assay buffer with isoguvacine was used for dilution of membranes, compounds, and radiolabel.
Rat cerebral cortex membranes were diluted in assay buffer at 1 mg/mL and aliquoted into a 96-well plate at 900 μL/well. Buffer or test compound were added at 20-times final concentration in the buffer at 50 μL/well. Membranes and test compounds or buffer were incubated for 10 min. at room temperature. Radiolableled [S—(R*,R*)]-[3-[[1-(3,4-dichlorophenyl)ethyl]amino]-2-hydroxypropyl](cyclohexylmethyl) phosphinic acid (CGP54626) was then added at 50 μL/well in the buffer at 1-10 nM concentration in 50 μl. The mixture was incubated for 15 min. at room temperature. The assay mixture was filtered using Brandell filtration apparatus and GFB filters, washed twice with 3 mL of 4° C., 50 mM Tris pH 7.4, buffer without isoguvacine. The filters were then dried at room temperature and the dried filters punched out and placed in individual vials. Three (3) mL of scintillation fluid was added to each vial and the radiolabel counted on the scintillation counter. The inverse amount of radiolabel was indicative of binding of a test compound to the GABAB receptor.

T1 sequence (Q9UBS5 15-961 limits assumed): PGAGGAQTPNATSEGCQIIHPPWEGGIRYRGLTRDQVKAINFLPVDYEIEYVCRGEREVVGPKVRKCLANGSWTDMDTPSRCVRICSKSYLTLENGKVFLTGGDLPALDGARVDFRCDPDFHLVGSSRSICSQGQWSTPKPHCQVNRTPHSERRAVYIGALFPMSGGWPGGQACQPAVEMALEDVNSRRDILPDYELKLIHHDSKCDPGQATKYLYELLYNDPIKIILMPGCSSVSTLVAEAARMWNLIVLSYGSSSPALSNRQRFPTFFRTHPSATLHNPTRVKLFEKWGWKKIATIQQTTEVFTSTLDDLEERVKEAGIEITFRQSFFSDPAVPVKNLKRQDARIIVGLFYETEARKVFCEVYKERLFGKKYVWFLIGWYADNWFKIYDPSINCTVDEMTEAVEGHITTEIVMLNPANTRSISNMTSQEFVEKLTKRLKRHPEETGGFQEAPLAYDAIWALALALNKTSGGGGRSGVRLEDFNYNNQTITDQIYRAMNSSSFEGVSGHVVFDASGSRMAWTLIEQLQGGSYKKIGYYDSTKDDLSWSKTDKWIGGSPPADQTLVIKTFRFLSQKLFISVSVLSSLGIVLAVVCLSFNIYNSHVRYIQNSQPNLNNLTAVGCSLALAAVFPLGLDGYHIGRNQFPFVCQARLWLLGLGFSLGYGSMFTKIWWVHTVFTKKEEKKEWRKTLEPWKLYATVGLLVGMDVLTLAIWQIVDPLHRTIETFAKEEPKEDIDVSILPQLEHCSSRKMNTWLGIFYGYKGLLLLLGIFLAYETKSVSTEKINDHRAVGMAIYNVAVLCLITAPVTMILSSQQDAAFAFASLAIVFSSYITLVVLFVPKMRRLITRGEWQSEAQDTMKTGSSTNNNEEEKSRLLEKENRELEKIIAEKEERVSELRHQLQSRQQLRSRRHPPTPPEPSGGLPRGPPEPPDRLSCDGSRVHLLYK
T1 sequence (O75899 42-941 partner): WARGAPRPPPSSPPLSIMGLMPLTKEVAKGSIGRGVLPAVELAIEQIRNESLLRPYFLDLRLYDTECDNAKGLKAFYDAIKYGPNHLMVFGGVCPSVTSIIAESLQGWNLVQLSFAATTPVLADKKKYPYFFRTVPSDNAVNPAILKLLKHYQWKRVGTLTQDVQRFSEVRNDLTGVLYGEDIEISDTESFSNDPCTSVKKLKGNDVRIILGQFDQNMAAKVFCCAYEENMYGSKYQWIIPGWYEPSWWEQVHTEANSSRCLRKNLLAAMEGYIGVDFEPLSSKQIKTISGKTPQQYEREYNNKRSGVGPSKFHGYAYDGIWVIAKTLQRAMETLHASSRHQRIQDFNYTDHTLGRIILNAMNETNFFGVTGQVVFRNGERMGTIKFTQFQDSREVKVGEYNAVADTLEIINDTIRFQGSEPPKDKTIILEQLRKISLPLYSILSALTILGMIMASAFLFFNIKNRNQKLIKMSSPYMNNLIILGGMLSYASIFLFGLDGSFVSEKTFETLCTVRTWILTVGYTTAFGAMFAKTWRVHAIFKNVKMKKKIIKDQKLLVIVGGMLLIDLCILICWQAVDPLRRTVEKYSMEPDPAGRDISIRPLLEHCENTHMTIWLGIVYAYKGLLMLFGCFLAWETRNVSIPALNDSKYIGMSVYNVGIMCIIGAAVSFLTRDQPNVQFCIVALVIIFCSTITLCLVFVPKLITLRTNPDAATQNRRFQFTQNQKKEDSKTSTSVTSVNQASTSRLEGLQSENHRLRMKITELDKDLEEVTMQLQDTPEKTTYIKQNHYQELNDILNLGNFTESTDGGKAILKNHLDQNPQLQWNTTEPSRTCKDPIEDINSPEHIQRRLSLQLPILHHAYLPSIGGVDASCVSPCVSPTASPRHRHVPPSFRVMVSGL
T2 sequence (Q9Z0U4 20-960): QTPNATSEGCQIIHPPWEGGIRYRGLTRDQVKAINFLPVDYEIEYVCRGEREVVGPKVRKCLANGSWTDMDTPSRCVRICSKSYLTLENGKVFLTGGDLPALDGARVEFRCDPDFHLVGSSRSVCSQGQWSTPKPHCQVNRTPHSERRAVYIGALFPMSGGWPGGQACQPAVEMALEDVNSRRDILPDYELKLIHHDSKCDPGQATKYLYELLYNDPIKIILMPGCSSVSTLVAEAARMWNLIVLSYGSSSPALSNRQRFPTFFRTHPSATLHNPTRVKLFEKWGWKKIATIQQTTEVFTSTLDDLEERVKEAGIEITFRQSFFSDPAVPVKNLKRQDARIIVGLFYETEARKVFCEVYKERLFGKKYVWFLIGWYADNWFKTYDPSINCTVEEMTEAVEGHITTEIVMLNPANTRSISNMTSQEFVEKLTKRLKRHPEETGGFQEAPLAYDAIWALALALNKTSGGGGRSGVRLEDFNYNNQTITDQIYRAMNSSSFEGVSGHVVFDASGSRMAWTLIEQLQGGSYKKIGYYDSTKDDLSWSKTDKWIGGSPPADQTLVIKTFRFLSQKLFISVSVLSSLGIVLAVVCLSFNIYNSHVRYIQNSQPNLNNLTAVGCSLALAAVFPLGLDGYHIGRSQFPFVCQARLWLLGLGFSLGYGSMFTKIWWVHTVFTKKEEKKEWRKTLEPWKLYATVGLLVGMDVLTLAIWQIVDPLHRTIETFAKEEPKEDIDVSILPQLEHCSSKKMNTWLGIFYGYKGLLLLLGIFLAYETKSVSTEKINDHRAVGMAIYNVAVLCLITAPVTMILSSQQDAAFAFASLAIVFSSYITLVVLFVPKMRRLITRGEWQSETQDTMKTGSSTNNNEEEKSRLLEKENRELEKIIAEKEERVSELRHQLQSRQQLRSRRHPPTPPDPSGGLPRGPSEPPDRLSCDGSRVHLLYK
T2 sequence (O88871 41-940 partner): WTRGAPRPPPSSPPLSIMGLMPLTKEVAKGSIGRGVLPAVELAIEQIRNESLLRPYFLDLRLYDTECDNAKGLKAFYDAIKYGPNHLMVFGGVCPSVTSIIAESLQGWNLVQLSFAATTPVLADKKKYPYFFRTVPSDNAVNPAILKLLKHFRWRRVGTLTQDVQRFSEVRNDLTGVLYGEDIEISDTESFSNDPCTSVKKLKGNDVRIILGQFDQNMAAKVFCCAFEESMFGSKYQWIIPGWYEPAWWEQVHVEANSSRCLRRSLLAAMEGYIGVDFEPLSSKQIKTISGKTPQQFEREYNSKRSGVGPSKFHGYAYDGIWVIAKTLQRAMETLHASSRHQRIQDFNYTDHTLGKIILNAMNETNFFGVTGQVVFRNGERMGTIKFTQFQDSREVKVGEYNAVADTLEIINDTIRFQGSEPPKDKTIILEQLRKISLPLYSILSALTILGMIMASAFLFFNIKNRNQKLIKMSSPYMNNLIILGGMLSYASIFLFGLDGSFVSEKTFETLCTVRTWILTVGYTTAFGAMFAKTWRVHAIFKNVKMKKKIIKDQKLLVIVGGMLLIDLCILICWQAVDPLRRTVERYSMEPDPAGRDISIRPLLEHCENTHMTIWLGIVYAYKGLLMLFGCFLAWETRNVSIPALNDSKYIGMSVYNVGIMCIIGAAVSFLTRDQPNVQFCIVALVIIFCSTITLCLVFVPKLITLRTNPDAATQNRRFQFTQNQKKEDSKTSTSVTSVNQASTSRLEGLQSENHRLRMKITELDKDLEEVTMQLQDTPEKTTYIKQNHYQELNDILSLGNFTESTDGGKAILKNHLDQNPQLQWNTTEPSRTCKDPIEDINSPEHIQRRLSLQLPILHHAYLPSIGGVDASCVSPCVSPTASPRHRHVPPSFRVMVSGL

Turning to `Cl.NC[C@H](CC(=O)O)c1ccc(Cl)c(OCc2ccncc2)c1` [Example 68, (3R)-4-Amino-3-[4-chloro-3-(4-pyridylmethoxy)phenyl]butanoic acid hydrochloride], the EC50 in data set [1] is below 100 nM; in data set [3], below 700 nM. Moreover, the “oral bioavailability (F %)” value in data set [2] is recorded as “greater than 10%”. In addition, the 50% inhibitory concentration (IC50) at GABAB receptor is below 25000 nM.

One may read the EC50 as the concentration at which the effect is half-maximal. In general, IC50 refers to the concentration at which inhibition is half-maximal. Read a high IC50 as weaker potency.
